Here are results for nine compounds from ChEMBL document CHEMBL4130376, “Discovery of methylsulfonyl indazoles as potent and orally active respiratory syncytial Virus(RSV) fusion inhibitors” (Eur J Med Chem, 2017).

A short description of series [1]: Metabolic stability in human liver microsomes by high-throughput screening based assay. It is filed as ADME, microsome. The note with it: read-out: Stability. (In general: Microsomes from liver hold many membrane-bound enzymes, among them those of drug oxidation.)
The nature of series [2]: Metabolic stability in mouse liver microsomes by high-throughput screening based assay. The class given is ADME, microsome. The note with it: read-out: Stability.
The nature of series [3]: Volume of distribution at steady state in rat at 2 mg/kg, iv. It is filed as ADME, organism-based. To be noted: in vivo, read-out: Vdss.
Series [4] is described as follows: Cmax in rat at 2 mg/kg, iv. It is filed as ADME, organism-based. On the set-up: dose 2 mg/kg, route intravenous. The note with it: in vivo.
A short description of series [5]: Half life in rat at 2 mg/kg, iv. The class given is ADME, organism-based. The note with it: in vivo.
Series [6] can be described thus: Cmax in rat at 10 mg/kg, po. The class given is ADME, organism-based. Also on record: dose 10 mg/kg, route oral. The note with it: in vivo.
A short description of series [7]: Plasma clearance in rat at 2 mg/kg, iv. It is filed as ADME, organism-based.
A short description of series [8]: Oral bioavailability in rat at 10 mg/kg. It is filed as ADME, organism-based. To be noted: in vivo.
A short description of series [9]: Effective permeability of the compound by PAMPA. It is filed as ADME. To be noted: read-out: Peff. For orientation: In PAMPA a lipid-coated filter parts donor from acceptor wells.
Series [10] is described as follows: AUC (0 to 24 hrs) in rat at 10 mg/kg, po. It is filed as ADME, organism-based. The note with it: in vivo. On the set-up: time < 24 hr, dose 10 mg/kg, route oral.
Series [11] is described as follows: Tmax in rat at 10 mg/kg, po. The class given is ADME, organism-based. To be noted: in vivo.
The nature of series [12]: AUC (0 to 24 hrs) in rat at 2 mg/kg, iv. The class given is ADME, organism-based. On the set-up: dose 2 mg/kg, time < 24 hr, route intravenous. To be noted: in vivo.
Series [13] is described as follows: Half life in rat at 10 mg/kg, po. It is filed as ADME, organism-based. To be noted: in vivo.
Series [14] in a line: Volume of distribution at steady state in ICR mouse at 2 mg/kg, iv. It is filed as ADME, organism-based. The note with it: in vivo, read-out: Vdss.
Series [15] can be described thus: Cmax in ICR mouse at 2 mg/kg, iv. It is filed as ADME, organism-based. Also on record: dose 2 mg/kg, route intravenous. To be noted: in vivo.
A short description of series [16]: Cmax in ICR mouse at […], po. To be noted: in vivo. It is filed as ADME, organism-based. On the set-up: dose 7.9 mg/kg, route oral.
Series [17] is described as follows: Oral bioavailability in ICR mouse at […]. The class given is ADME, organism-based. The note with it: in vivo.
Series [18] in a line: AUC (0 to 24 hrs) in ICR mouse at […], po. The class given is ADME, organism-based. Also on record: time < 24 hr, dose 7.9 mg/kg, route oral. The note with it: in vivo.
Series [19] in a line: Half life in ICR mouse at 2 mg/kg, iv. It is filed as ADME, organism-based. The note with it: in vivo.
Series [20] in a line: Metabolic stability in rat liver microsomes by high-throughput screening based assay. The class given is ADME, microsome. The note with it: read-out: Stability.
A short description of series [21]: Tmax in ICR mouse at […], po. The note with it: in vivo. It is filed as ADME, organism-based.
The nature of series [22]: Plasma clearance in ICR mouse at 2 mg/kg, iv. The class given is ADME, organism-based.
Series [23] is described as follows: (§1) AUC (0 to 24 hrs) in ICR mouse at 2 mg/kg, iv. It is filed as ADME, organism-based. Also on record: time < 24 hr, dose 2 mg/kg, route intravenous. The note with it: ICR, in vivo.
Series [24] in a line: Half life in ICR mouse at […], po. It is filed as ADME, organism-based. The note with it: in vivo.
Series [25] has as its system Mus musculus. Put plainly: AUC (0 to 24 hrs) in ICR mouse at 25 mg/kg, po. The note with it: in vivo. It is filed as ADME, organism-based. Also on record: dose 25 mg/kg, time < 24 hr, route oral.
Series [26] is described as follows: Cmax in ICR mouse at 25 mg/kg, po. The class given is ADME, organism-based. To be noted: in vivo. Also on record: dose 25 mg/kg, route oral.
The test system of series [27] is Mus musculus. Description: Oral bioavailability in ICR mouse at 25 mg/kg. To be noted: in vivo. It is filed as ADME, organism-based.
Series [28] in a line: Tmax in ICR mouse at 25 mg/kg, po. To be noted: in vivo. The class given is ADME, organism-based.
Series [29] has as its system Mus musculus. The series is described as §1. The class given is ADME, organism-based. On the set-up: time < 24 hr, dose 2 mg/kg, route intravenous. To be noted: in vivo, 24 h.
A short description of series [30]: Half life in ICR mouse at 25 mg/kg, po. It is filed as ADME, organism-based. The note with it: in vivo.
The nature of series [31]: Half life in ICR mouse at 12.5 mg/kg, po. The note with it: in vivo. The class given is ADME, organism-based.
Series [32] can be described thus: Cmax in ICR mouse at 12.5 mg/kg, po. It is filed as ADME, organism-based. Also on record: dose 12.5 mg/kg, route oral. To be noted: in vivo.
The nature of series [33]: Oral bioavailability in ICR mouse at 12.5 mg/kg. It is filed as ADME, organism-based. To be noted: in vivo.
A short description of series [34]: AUC (0 to 24 hrs) in ICR mouse at 12.5 mg/kg, po. It is filed as ADME, organism-based. Also on record: time < 24 hr, dose 12.5 mg/kg, route oral. To be noted: in vivo.
The nature of series [35]: Tmax in ICR mouse at 12.5 mg/kg, po. It is filed as ADME, organism-based. The note with it: in vivo.

Take `CS(=O)(=O)CCc1c(CN2C(=O)C3(CC3)c3ccncc32)nc2cc(Cl)ccn12`: the values for the CLhep predicted in [1] and in series [2] were 2.6 mL/min/kg and 63.5 mL/min/kg, respectively.

For the compound `CS(=O)(=O)CCCn1c(Cn2nc(S(C)(=O)=O)c3ccccc32)nc2cc(Cl)ccc21`, the Vd in series [3] is 2.5 L/kg. The results for the highest concentration (Cmax) in series [4] and in series [6] were 1160 ng/mL and 22.2 ng/mL, respectively. In addition, the values for the half-life in series [5] and in [13] were 3.91 h and 3.66 h, respectively. Besides, the clearance (usually a measure of how efficiently the substance is removed, as volume per time) in series [7] came out at 17.4 mL/min/kg. Further, the bioavailability (commonly the share of a dose that reaches the circulation, judged against a reference dose that is usually intravenous) in series [8] worked out at 1.7%. In addition, the CLhep predicted is 3.42 mL/min/kg in series [1] and 14.9 mL/min/kg in series [2]. Moreover, the Papp in series [9] is 2.78 ×10⁻⁶ cm/s. The AUC(0-t) (as a rule, the area under the concentration-time curve up to a stated or last time point) at 24 h in series [10] amounted to 204 ng·h/mL; in [12] it was 2470 ng·h/mL. Moreover, the time of peak concentration (Tmax) – broadly, the time at which the peak concentration occurs – in [11] came to 2.67 h.

On to `CC(C)(O)CCn1c(Cn2nc(S(C)(=O)=O)c3ccncc32)nc2cc(Cl)ccc21`, for which, in series [14], the Vd was 1.93 L/kg. In addition, the maximum concentration (Cmax) (usually the peak of the concentration-time curve) in series [15] is 894 ng/mL; in series [16] it was 324 ng/mL. This compound gave a bioavailability in series [17] of 32.5%. The values for the exposure AUC(0-t) at 24 h in [18] and in series [23] were 546 ng·h/mL and 701 ng·h/mL, respectively. Also, the CLhep predicted was 2.95 mL/min/kg in series [1], 26.6 mL/min/kg in [2] and 8.45 mL/min/kg in [20]. For the same compound, the Papp in [9] stood at 2.39 ×10⁻⁶ cm/s. For the same compound, the half-life (in general, the time in which the quantity being followed falls by half) in series [19] was 0.47 h; in series [24] it was 1.98 h. Besides, the Tmax in series [21] was found to be 0.25 h. In series [22], this compound showed a clearance of 61.1 mL/min/kg.

As for `CS(=O)(=O)c1nn(Cc2nc3cc(Cl)ccc3n2CCCCO)c2cnccc12`, the Vd in [14] was found to be 1.08 L/kg. The maximum concentration (Cmax) in series [15] was found to be 1420 ng/mL; in [26], 425 ng/mL. Besides, the results for the AUC in series [25] and in series [29] were 580 ng·h/mL and 1380 ng·h/mL, respectively. Moreover, the CLhep predicted was 2.58 mL/min/kg in series [1], 25.5 mL/min/kg in series [2] and 20.7 mL/min/kg in [20]. Moreover, the Papp in series [9] was determined as 2.42 ×10⁻⁶ cm/s. Further, the half-life in series [19] was 0.297 h; in [30] it was 1.81 h. The same compound returned a F in [27] of 19%. For the same compound, the time of peak concentration (Tmax) in series [28] came out at 0.25 h.

With `CN(C)S(=O)(=O)c1cn(Cc2nc3cc(Cl)ccc3n2CCCS(C)(=O)=O)c2ccccc12`, the CLhep predicted in series [1] is 21.9 mL/min/kg; in [2], 81.7 mL/min/kg; in [20] it was 56.2 mL/min/kg. Further, the Papp in [9] was 1.55 ×10⁻⁶ cm/s.

On to `CS(=O)(=O)CCn1c(Cn2cc(S(C)(=O)=O)c3ccccc32)nc2cc(Cl)ccc21`, for which the Papp in series [9] was 2.3 ×10⁻⁶ cm/s.

For the compound `CS(=O)(=O)c1nn(Cc2nc3cc(Cl)ccc3n2CCOCCO)c2cnccc12`, the CLhep predicted in series [1] was 1.91 mL/min/kg; in series [2], 14.2 mL/min/kg; in [20], 13.7 mL/min/kg. Moreover, the Papp in [9] came out at 3.12 ×10⁻⁶ cm/s.

On to `CS(=O)(=O)CCn1c(Cc2cn(S(C)(=O)=O)c3ccccc23)nc2ccccc21`, for which the CLhep predicted was 16.5 mL/min/kg in series [1] and 73.2 mL/min/kg in series [2].

As for `CS(=O)(=O)c1nn(Cc2nc3cc(Cl)ccc3n2CCCO)c2cnccc12`, the half-life in series [31] is 6.6 h; in series [19], 4.05 h. Further, the highest concentration (Cmax) in series [32] was 155 ng/mL; in series [15], 1730 ng/mL. This compound had a bioavailability in [33] of 17.1%. Also, the Vd in series [14] came to 8.3 L/kg. Further, the area under the curve AUC(0-t) at 24 h in series [34] was determined as 891 ng·h/mL; in series [23], 954 ng·h/mL. Besides, the CLhep predicted is 2.96 mL/min/kg in [1], 15.3 mL/min/kg in [2] and 14.9 mL/min/kg in [20]. Further, in [9], the Papp was determined as 3.47 ×10⁻⁶ cm/s. Further, in series [22], the clearance amounted to 37.4 mL/min/kg. The time of peak concentration (Tmax) in [35] worked out at 0.5 h.
